Data set [1] relates to HCV replicon cells Huh 9B. In words: HCV replicon luciferase assay. In kind it is cell-based, hepatitis C virus. The note with it: Huh 9B replicon cells, 72 h incubation, luciferase readout. Here is the method:
(§1) HCV replicon cells Huh 9B (ReBlikon), containing the firefly luciferase—ubiquitin—neomycin phosphotransferase fusion protein and EMCV-IRES driven HCV polyprotein with cell culture adaptive mutations.
(§2) Cells were cultured at 37° C. in a 5% CO2 environment and split twice a week on seeding at 2×10E6 cells/flask on day 1 and 1×10E6 3 days later. Some 0.25 mg/ml G418 was added to the culture medium (125 ul per 25 ml) but not the assay medium.
(§3) The culture medium consisted of DMEM with […] glucose and glutamax (Gibco 61965-026) supplemented with 1× non-essential amino acids, penicillin (100 IU/ml)/streptomycin (100 μg/ml), FCS (10%, 50 ml) and 1 mg/ml G418 (Invitrogen cat no 10131-027) & 10% foetal calf serum.
(§4) A flask of cells was trypsinised and a cell count carried out. Cells were diluted to 100,000 cells/ml and 100 μl of this used to seed one opaque white 96-well plate (for the replicon assay) and one flat-bottomed clear plate (for the tox assay) for every seven compounds to be tested for IC50. Wells G12 and H12 were left empty in the clear plate as the blank. Plates were then incubated at 37° C. in a 5% CO2 environment for 24 h.
(§5) On the following day compound dilutions are made up in medium at twice their desired final concentration in a clear round bottomed plate. All dilutions have a final DMSO concentration of 1%.
(§6) Once the dilution plate had been made up, controls and compounds were transferred to the assay plate (containing the cells) at 100 μl /well in duplicate plates.
(§7) Exception: in the white (replicon) plate, no compound was added to wells A1 and A2 and 100 μl of 1% DMSO was added to these instead. In the clear (Tox) plate, wells E12 & F12 only contained the DMSO control. Plates were then incubated at 37° C. with 5% CO2 for 72 h.
At the end of the incubation time, the cells in the white plate were harvested by washing with 200 μl/well of warn (37° C.) PBS and lysed with 20 μl cell culture lysis buffer (Promega). After 5 min incubation @ RT, luciferin solution was added to the luciferase assay buffer (LARB at 200 μl per 10 ml LARB. The M injector of the microplate luminometer (Lmax, Molecular Devices) was primed with […] injections. Plate were inserted into the luminometer and 100 μl luciferase assay reagent was added by the injector on the luminometer. The signal was measured using a 1 second delay followed by a 4 second measurement programme. The IC50, the concentration of the drug required for reducing the replicon level by 50% in relation to the untreated cell control value, can be calculated from the plot of the percentage reduction of the luciferase activity vs. drug concentration.
In general terms: Replicon systems follow genome replication, usually without infectious particles.

Data set [2] deals with HCV replicon cells Huh 9B. In kind it is cell-based. The note with it: Huh 9B replicon cells, 72 h incubation, methylene blue absorbance at 620 nm. How it is done:
as §1, §2, §3, §4, §5, §6, §7
The clear plate was stained with 100 μl 0.5% methylene blue in 50% ethanol at RT for 1 h, followed by solvation of the absorbed methylene blue in 100 μl per well of 1% lauroylsarcosine. Absorbance of the plate was measured on a microplate spectrophotometer (Molecular Devices) and the absorbance for each concentration of compound expressed as a proportion of the relative DMSO control. The TD50, the concentration of drug required to reduce the total cell area by 50% relative to the DMSO controls can be calculated by plotting the absorbance at 620 nm vs drug concentration.

A value given as a limit tells only on which side of the number the result lay.

For `CCOc1ccc(-c2ccc3ncnc(Nc4ccc(N5CCOCC5)cc4)c3c2)cc1OCC` [Example 4], the IC50 – broadly, the concentration that inhibits the measured activity by half – in data set [1] is less than 1000 nM. Further, the “Replicon TD5O” value in data set [2] was “** (>10 uM = **)”.
`Fc1cc(-c2ccc3ncnc(Nc4ccc(N5CCOCC5)cc4)c3c2)ccc1OCCN1CCOCC1` [Example 5, {6-[3-Fluoro-4-(2-morpholin-4-yl-ethoxy)-phenyl]-quinazoline-4-yl}-(4-morpholin-4-yl-phenyl)-amine] gave an IC50 in data set [1] (Hepatitis C virus) of less than 1000 nM. Besides, the “Replicon TD5O” value in data set [2] was “*** (>25 uM = ***)”.
Taken in the same sequence, the figures for `c1nc(Nc2ccc(N3CCOCC3)cc2)c2cc(-c3ccc(OCCCN4CCOCC4)cc3)ccc2n1` [Example 2, (4-Morpholin-4-yl-phenyl)-{6-[4-(3-morpholin-4-yl-propoxy)-phenyl]-quinazolin-4-yl}-amine] were less than 1000 nM and “** (>10 uM = **)”.
The corresponding values for `c1nc(Nc2ccc(N3CCOCC3)cc2)c2cc(-c3ccc(OCCN4CCOCC4)cc3)ccc2n1` [Example 1, {6-[4-(2-Morpholin-4-yl-ethoxy)-phenyl]-quinazolin-4-yl}-(4-morpholin-4-yl-phenyl)-amine] are less than 5000 nM and “*** (>25 uM = ***)”.
The corresponding values for `COc1ccc(-c2ccc3ncnc(Nc4ccc(N5CCOCC5)cc4)c3c2)cc1OC` [Example 3, [6-(3,4-Dimethoxy-phenyl)-quinazolin-4-yl]-(4-morpholin-4-yl-phenyl)-amine] are less than 1000 nM and “** (>10 uM = **)”.

These data come from US20080267914A1, “Chemical Compounds” (priority 2005, published 2008).
